According to ChEMBL document CHEMBL5465560, “Selectivity Literature for EUbOPEN Chemogenomic Library” (2024):

Assays:
Conditions in all cases: at 10 µM
[1] = biological target: Phosphatidylinositol 4-phosphate 5-kinase type-1 gamma (Homo sapiens) (UniProt O60331); assay: Selectivity interaction (KinomeScan (DiscoverX)) EUB0000229b PIP5K1C
[2] = biological target: T1, Interleukin-1 receptor-associated kinase 4 (Homo sapiens) (UniProt Q9NWZ3); assay: Selectivity interaction (Kinase panel (Z-LYTE Assay)) EUB0001632a IRAK4
T1 sequence (whole entry): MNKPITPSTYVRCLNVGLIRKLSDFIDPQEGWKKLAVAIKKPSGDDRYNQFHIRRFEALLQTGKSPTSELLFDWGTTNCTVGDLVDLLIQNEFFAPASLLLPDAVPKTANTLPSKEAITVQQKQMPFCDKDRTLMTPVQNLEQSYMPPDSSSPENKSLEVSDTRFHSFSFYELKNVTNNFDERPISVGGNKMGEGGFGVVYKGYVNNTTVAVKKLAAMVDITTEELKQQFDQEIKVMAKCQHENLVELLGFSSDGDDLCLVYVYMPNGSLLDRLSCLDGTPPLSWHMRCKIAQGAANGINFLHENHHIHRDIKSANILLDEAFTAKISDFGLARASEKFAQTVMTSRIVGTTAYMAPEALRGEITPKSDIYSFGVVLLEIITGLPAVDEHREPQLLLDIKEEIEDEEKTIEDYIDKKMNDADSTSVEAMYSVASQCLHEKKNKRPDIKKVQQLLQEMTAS

[3] = biological target: T2, Ankyrin repeat and protein kinase domain-containing protein 1 (Homo sapiens) (UniProt Q8NFD2); assay: Selectivity interaction (KinomeScan (DiscoverX)) EUB0000666a ANKK1
T2 sequence (whole entry): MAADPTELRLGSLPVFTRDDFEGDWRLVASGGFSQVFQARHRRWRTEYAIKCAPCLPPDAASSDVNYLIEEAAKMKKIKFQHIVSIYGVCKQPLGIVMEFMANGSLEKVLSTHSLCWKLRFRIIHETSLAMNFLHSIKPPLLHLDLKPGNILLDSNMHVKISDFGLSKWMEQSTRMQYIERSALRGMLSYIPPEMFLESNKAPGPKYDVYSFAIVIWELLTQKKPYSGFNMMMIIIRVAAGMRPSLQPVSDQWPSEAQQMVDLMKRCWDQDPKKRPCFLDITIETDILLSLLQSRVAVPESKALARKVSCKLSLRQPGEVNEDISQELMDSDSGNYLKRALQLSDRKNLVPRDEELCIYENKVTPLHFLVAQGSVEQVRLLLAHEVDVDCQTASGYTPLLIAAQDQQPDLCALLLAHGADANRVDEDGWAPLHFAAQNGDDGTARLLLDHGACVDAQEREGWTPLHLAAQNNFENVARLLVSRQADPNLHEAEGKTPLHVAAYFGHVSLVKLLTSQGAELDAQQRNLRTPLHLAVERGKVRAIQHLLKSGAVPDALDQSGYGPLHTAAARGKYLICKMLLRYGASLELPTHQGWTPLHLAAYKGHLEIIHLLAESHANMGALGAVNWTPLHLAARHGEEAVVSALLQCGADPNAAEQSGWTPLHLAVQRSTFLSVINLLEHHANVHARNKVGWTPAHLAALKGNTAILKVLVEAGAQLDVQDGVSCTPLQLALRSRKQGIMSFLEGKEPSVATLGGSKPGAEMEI

[4] = biological target: T3, Serine/threonine-protein kinase LATS2 (Homo sapiens) (UniProt Q9NRM7); assay: Selectivity interaction (KinomeScan (DiscoverX)) EUB0000655a LATS2
T3 sequence (whole entry): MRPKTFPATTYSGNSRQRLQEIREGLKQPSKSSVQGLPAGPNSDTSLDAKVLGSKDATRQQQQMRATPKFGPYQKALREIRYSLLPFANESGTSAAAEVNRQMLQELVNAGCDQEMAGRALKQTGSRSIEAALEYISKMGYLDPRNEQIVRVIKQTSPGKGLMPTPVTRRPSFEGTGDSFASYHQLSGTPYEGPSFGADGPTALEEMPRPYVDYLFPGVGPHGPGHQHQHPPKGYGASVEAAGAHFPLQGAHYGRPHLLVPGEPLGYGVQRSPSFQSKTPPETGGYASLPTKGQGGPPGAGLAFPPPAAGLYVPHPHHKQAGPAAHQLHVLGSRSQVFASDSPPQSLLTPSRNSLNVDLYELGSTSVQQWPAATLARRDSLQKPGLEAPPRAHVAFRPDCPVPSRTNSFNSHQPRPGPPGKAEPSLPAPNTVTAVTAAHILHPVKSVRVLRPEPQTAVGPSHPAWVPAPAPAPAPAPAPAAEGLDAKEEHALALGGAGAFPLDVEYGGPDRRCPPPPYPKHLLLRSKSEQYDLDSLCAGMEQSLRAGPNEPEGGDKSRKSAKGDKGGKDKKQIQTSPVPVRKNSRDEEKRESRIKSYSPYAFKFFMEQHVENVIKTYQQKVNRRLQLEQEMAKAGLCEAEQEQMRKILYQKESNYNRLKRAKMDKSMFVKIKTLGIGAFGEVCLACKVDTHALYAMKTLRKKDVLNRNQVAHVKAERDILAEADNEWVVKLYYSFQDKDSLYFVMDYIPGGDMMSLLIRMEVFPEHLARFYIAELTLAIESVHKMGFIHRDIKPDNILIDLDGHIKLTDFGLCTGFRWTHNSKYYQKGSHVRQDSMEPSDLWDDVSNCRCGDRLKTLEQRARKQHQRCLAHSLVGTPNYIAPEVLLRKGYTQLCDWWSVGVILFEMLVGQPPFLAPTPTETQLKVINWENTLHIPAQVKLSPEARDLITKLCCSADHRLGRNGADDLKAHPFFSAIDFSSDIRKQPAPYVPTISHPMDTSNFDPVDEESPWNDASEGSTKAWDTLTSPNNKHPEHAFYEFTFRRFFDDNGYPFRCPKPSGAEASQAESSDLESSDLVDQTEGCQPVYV

[5] = biological target: Tyrosine-protein kinase SYK (Homo sapiens, UniProt P43405)
[6] = biological target: T4, Myosin light chain kinase family member 4 (Homo sapiens) (UniProt Q86YV6)
T4 sequence (whole entry): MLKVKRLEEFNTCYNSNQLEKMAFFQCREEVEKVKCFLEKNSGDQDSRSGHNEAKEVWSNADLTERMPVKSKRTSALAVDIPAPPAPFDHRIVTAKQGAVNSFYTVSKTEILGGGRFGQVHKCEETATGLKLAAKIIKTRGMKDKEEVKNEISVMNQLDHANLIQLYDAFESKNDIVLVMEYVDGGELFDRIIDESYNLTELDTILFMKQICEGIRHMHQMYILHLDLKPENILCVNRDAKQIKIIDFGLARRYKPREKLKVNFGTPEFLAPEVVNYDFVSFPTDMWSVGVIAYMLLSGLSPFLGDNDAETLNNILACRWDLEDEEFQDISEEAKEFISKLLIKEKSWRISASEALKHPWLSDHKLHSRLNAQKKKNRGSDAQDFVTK

Phosphatidylinositol 4-phosphate 5-kinase type-1 gamma (Homo sapiens), sequence (O60331 whole entry): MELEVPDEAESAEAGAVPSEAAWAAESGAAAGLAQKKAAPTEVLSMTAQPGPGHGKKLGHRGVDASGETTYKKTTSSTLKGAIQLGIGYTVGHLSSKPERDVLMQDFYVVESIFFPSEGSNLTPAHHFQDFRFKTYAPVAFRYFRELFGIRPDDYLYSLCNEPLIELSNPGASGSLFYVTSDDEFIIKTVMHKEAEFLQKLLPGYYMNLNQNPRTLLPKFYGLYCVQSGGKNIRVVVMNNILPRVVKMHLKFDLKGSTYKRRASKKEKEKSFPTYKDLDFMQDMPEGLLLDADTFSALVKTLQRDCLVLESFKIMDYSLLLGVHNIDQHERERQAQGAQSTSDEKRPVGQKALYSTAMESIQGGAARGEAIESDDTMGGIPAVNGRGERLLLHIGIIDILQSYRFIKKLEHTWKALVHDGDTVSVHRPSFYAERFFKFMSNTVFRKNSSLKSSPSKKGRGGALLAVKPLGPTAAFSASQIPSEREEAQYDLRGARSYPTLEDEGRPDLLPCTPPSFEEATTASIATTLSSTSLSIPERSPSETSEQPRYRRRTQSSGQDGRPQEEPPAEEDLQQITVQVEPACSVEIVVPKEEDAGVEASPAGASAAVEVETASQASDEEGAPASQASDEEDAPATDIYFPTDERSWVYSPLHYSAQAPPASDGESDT

For `COc1cc(N(C)c2ccnc3ccc(C(F)(F)F)cc23)cc(OC)c1OC`, the % binding [1] was 53%.
Work on `Cn1cc(-n2cnc3c(NCc4nc5cc(Cl)c(Cl)cc5[nH]4)nc(N4CCOCC4)nc32)cn1` yielded a % of control [2] of 2.42%.
Work on `O=C(NOC[C@H](O)CO)c1ccc(F)c(F)c1Nc1ccc(I)cc1F` yielded a % of control [3] of 64%.
With `CN(C)CCOc1ccc(-c2nc(-c3ccncc3)c(-c3ccc4c(c3)CC/C4=N\O)[nH]2)cc1` the % of control [4] was 45%.
`CCN(CC)CCCCNc1ncc2cc(-c3cc(OC)cc(OC)c3)c(NC(=O)NC(C)(C)C)nc2n1` showed a % of control [5] of 100% and a % of control [6] of 100%.
